Values quoted from earlier work, collected in US20230035823A1, “ANTIHISTAMINE AND ANTI-MICROBIAL NASAL SOLUTIONS AND RELATED METHODS” (Xlear, Inc., priority 2021, published 2023).

How the values were obtained:
Streptococcus pneumonia = conditions: in vitro, during logarithmic growth phase
[1] = regular consumption
[2] = in vivo

## OC[C@@H](O)[C@H](O)[C@@H](O)CO [Xylitol, xylitol]
Streptococcus pneumonia
  growth of Streptococcus pneumonia: inhibit the growth
[1]
  incidence of dental caries: reduce the incidence of dental caries
[2]
  moisturizing nasal passages: very effective
